For this test, the system named is patients with resistant hypertension. Description: PRECISION phase 3 trial: trough unattended automated office blood pressure (uAOBP). It counts as in vivo, human. To be noted: for office SBP at 4 weeks, difference versus placebo (SE): part 1 (primary endpoint); for least square mean (SE) change in office SBP at 4 weeks: part 1, on standardized background therapy; for office DBP decrease compared with placebo: week 4, part 1. How it is done: A single, randomized study with three sequential treatment parts was designed. The study design addressed both the 4-week placebo-controlled efficacy of 12.5 and 25 mg aprocitentan (Part 1) and the durability of its effects in long-term active treatment with 25 mg aprocitentan for a further 32 weeks (Part 2) followed by a 12-week placebo-controlled withdrawal period with patients re-randomized to 25 mg or placebo (Part 3) (see for example Danaietash P et al; Identifying and treating resistant hypertension in PRECISION—a randomized long-term clinical trial with Aprocitentan. J Clin Hypertension 2022 (in press). Patients with uncontrolled BP (measured as unattended automated office BP) despite the use of three or more antihypertensive medications for at least 1 year were screened. They were switched to a single-tablet triple fixed combination antihypertensive therapy for at least 4 weeks before entering a single-blind placebo run-in period. The 4-week placebo run-in period further excluded placebo responders. The randomization period consisted of 3 sequential parts: • 1) a 4-week double-blind part with aprocitentan 12.5 mg, 25 mg, or placebo (1:1:1 ratio); • 2) a 32-week single-blind part with aprocitentan 25 mg; and • 3) a 12-week randomized withdrawal part with aprocitentan 25 mg or placebo (1:1 ratio).
The standardized byckground treatment (SBT) is a single-tablet triple fixed combination of a CCB (amlodipine), an ARB (valsartan), and a diuretic (hydrochlorothiazide); two dose strengths are available: 5/160/25 mg and 10/160/25 mg, respectively. The maximum tolerated dose strength is selected at the investigator's discretion during the treatment period of the study and must be kept stable for at least 1 week prior to randomization continuing through the end of the DB part and again during the DB-WD part. Patients who are treated with a β-blocker at screening will continue their treatment throughout the study.
Study treatment and SBT are to be taken every morning except on the morning of study visit days, where treatment is administered after the completion of the visit assessments and the measurement of BP.
Trough uAOBP is measured at each visit with the same automated oscillometric sphygmomanometer (Microlife® WatchBP Office), which records 5 sitting BP readings (one per minute, first value excluded from the average), with the patient resting undisturbed, alone (unattended) in a quiet place for 5 minutes.
• Part 1: Double-blind, randomized parallel-group and placebo-controlled and lasts for 4 weeks. Subjects received (1:1:1 ratio), 25 or 12.5 mg aprocitentan, or placebo. • Part 2: Single-blind and single-arm, lasts for 32 weeks. All subjects received aprocitentan 25 mg. • Part 3: Double-blind withdrawal. All subjects completing part 2 and entering part 3 are re-randomized (1:1 ratio) to either aprocitentan 25 mg or placebo.
The primary efficacy endpoint is the change from baseline to Week 4 of DB treatment in mean trough SiSBP measured as uAOBP, where baseline is defined as the last available measurement before the start of DB treatment. […]
Other secondary efficacy endpoints include • changes from baseline to Week 4 and from DB-WD baseline to Week 40 in mean trough sitting diastolic blood pressure (SiDBP) measured as uAOBP. • and changes in systolic/diastolic BP measured by ABPM, including changes from baseline to Week 4 of DB treatment in 24-h mean SBP and DBP, changes from baseline to Week 4 in daytime and night-time mean SBP and DBP, changes from DB-WD baseline (Week 36) to Week 40 in 24-h mean SBP and DBP, and changes from DB-WD baseline (Week 36) to Week 40 in daytime and night-time mean SBP and DBP.

Where [1] appears, read: subjects with CKD stage 3-4, baseline to Week 4.

Regarding `NS(=O)(=O)Nc1ncnc(OCCOc2ncc(Br)cn2)c1-c1ccc(Br)cc1` [aprocitentan, {5-(4-bromo-phenyl)-6-[2-(5-bromo-pyrimidin-2-yloxy)-ethoxy]-pyrimidin-4-yl}-sulfamide], under “aprocitentan 12.5 mg”, the “office SBP at 4 weeks, difference versus placebo (SE)” value was “statistically significant and clinically meaningful reduction”; the “least square mean (SE) change in office SBP at 4 weeks” value is recorded as −15.3 (0.9) mm Hg; the “office DBP decrease compared with placebo” value is given as −3.9 mm Hg. Further, where the note is “aprocitentan 25 mg, 32-week single-blind part 2, patients previously on aprocitentan”, the “office blood pressure reduction from baseline during part 2” value is “maintained”. In addition, where the note is “aprocitentan 25 mg”, the “office SBP at 4 weeks, difference versus placebo (SE)” value was “statistically significant and clinically meaningful reduction”; the “least square mean (SE) change in office SBP at 4 weeks” value is −15.2 (0.9) mm Hg; the “office DBP decrease compared with placebo” value is reported as −4.5 mm Hg. Besides, the “office DBP increase with placebo compared with aprocitentan” value (part 3, after 4 weeks of withdrawal, aprocitentan 25 mg) worked out at 5.2 mm Hg. Also, under setting [1], the “difference 25 mg versus 12.5 mg in LS mean reduction, primary endpoint SiSBP” value was “up to −5.88 mmHg” and the “further decrease in SiSBP with 25 mg compared with 12.5 mg” value was found to be 44%.

Values taken from patent US20250345332A1, “APROCITENTAN FOR THE TREATMENT OF HYPERTENSION” (IDORSIA PHARMACEUTICALS LTD, priority 2022, published 2025).
